Assay: Viscosity, Haake Rheostress RS 600 rheometer, flat plate geometry
Type: physicochemical
Details: for Viscosity: 1.5 mol/kg aqueous Mg-salt solution, 25° C.
Protocol: The viscosity is measured using a Haake Rheometer, type Haake Rheostress RS 600, with a flat plate geometry at a temperature of 25° C. unless otherwise indicated. The viscosity is measured at shear rates (i) of between in the range of between 10 s^−1 and 1000 s^−1, unless otherwise indicated.

SMILES	Viscosity [mPas]	viscosity relative to the jettable range (jettable range typically between 2 and 8 mPas, 1.5 mol/kg solution)
O=S(=O)([O-])[O-].[Mg+2] [compound 1, Mg-sulfate, reference compound]	3.2	
O=[N+]([O-])[O-].O=[N+]([O-])[O-].[Mg+2] [compound 2, Mg-nitrate, reference compound]	4.6	
C=C(CC(=O)[O-])C(=O)[O-].[Mg+2] [compound 8, Mg-itaconate]	5.5	
O=C([O-])CCC(=O)[O-].[Mg+2] [compound 10, Mg-succinate]	5.0	
CC(=O)CCC(=O)[O-].CC(=O)CCC(=O)[O-].[Mg+2] [compound 14, Mg-levulinate]	10.3	outside the jettable range
O=C([O-])CCCCC(=O)[O-].[Mg+2] [compound 15, Mg-adipate]	8.8	
